According to US8722704B2, “Modulators of ATP-binding cassette-transporters” (Vertex Pharmaceuticals Incorporated, priority 2007, dated 2014):

Target: T1, ΔF508-CFTR (Homo sapiens, UniProt P13569, DEL508-508)
T1 construct: expressed in transfected cells
Experiment: Assays for detecting and measuring ΔF508-CFTR correction properties (membrane potential optical assay; Table 3 does not say which assay)
Format: cell-based
Conditions: IC50/EC50 bins; NIH3T3 mouse fibroblasts stably expressing ΔF508-CFTR; read-out: Binned EC50
Description: The optical membrane potential assay utilized voltage-sensitive FRET sensors described by Gonzalez and Tsien (See Gonzalez, J. E. and R. Y. Tsien (1995) “Voltage sensing by fluorescence resonance energy transfer in single cells” Biophys J 69(4): 1272-80, and Gonzalez, J. E. and R. Y. Tsien (1997) “Improved indicators of cell membrane potential that use fluorescence resonance energy transfer” Chem Biol 4(4): 269-77) in combination with instrumentation for measuring fluorescence changes such as the Voltage/Ion Probe Reader (VIPR) (See Gonzalez, J. E., K. Oades, et al. (1999) “Cell-based assays and instrumentation for screening ion-channel targets” Drug Discov Today 4(9): 431-439).
These voltage sensitive assays are based on the change in fluorescence resonant energy transfer (FRET) between the membrane-soluble, voltage-sensitive dye, DiSBAC2(3), and a fluorescent phospholipid, CC2-DMPE, which is attached to the outer leaflet of the plasma membrane and acts as a FRET donor. Changes in membrane potential (Vm) cause the negatively charged DiSBAC2(3) to redistribute across the plasma membrane and the amount of energy transfer from CC2-DMPE changes accordingly. The changes in fluorescence emission were monitored using VIPR™ II, which is an integrated liquid handler and fluorescent detector designed to conduct cell-based screens in 96- or 384-well microtiter plates.
To identify small molecules that correct the trafficking defect associated with ΔF508-CFTR; a single-addition HTS assay format was developed. The cells were incubated in serum-free medium for 16 hrs at 37° C. in the presence or absence (negative control) of test compound. As a positive control, cells plated in 384-well plates were incubated for 16 hrs at 27° C. to “temperature-correct” ΔF508-CFTR. The cells were subsequently rinsed 3× with Krebs Ringers solution and loaded with the voltage-sensitive dyes. To activate ΔF508-CFTR, 10 μM forskolin and the CFTR potentiator, genistein (20 μM), were added along with Cl^−-free medium to each well. The addition of Cl^−-free medium promoted Cl^− efflux in response to ΔF508-CFTR activation and the resulting membrane depolarization was optically monitored using the FRET-based voltage-sensor dyes. […]
3. Solutions • Bath Solution #1: (in mM) NaCl 160, KCl 4.5, CaCl2 2, MgCl2 1, HEPES 10, pH 7.4 with NaOH. • Chloride-free bath solution: Chloride salts in Bath Solution #1 are substituted with gluconate salts. • CC2-DMPE: Prepared as a 10 mM stock solution in DMSO and stored at −20° C. • DiSBAC2(3): Prepared as a 10 mM stock in DMSO and stored at −20° C.
NIH3T3 mouse fibroblasts stably expressing ΔF508-CFTR are used for optical measurements of membrane potential. The cells are maintained at 37° C. in 5% CO2 and 90% humidity in Dulbecco's modified Eagle's medium supplemented with 2 mM glutamine, 10% fetal bovine serum, 1×NEAA, β-ME, 1×pen/strep, and 25 mM HEPES in 175 cm^2 culture flasks. For all optical assays, the cells were seeded at 30,000/well in 384-well matrigel-coated plates and cultured for 2 hrs at 37° C. before culturing at 27° C. for 24 hrs for the potentiator assay. For the correction assays, the cells are cultured at 27° C. or 37° C. with and without compounds for 16-24 hours.

T1 sequence (P13569 with tags, fused parts or gaps DEL508-508): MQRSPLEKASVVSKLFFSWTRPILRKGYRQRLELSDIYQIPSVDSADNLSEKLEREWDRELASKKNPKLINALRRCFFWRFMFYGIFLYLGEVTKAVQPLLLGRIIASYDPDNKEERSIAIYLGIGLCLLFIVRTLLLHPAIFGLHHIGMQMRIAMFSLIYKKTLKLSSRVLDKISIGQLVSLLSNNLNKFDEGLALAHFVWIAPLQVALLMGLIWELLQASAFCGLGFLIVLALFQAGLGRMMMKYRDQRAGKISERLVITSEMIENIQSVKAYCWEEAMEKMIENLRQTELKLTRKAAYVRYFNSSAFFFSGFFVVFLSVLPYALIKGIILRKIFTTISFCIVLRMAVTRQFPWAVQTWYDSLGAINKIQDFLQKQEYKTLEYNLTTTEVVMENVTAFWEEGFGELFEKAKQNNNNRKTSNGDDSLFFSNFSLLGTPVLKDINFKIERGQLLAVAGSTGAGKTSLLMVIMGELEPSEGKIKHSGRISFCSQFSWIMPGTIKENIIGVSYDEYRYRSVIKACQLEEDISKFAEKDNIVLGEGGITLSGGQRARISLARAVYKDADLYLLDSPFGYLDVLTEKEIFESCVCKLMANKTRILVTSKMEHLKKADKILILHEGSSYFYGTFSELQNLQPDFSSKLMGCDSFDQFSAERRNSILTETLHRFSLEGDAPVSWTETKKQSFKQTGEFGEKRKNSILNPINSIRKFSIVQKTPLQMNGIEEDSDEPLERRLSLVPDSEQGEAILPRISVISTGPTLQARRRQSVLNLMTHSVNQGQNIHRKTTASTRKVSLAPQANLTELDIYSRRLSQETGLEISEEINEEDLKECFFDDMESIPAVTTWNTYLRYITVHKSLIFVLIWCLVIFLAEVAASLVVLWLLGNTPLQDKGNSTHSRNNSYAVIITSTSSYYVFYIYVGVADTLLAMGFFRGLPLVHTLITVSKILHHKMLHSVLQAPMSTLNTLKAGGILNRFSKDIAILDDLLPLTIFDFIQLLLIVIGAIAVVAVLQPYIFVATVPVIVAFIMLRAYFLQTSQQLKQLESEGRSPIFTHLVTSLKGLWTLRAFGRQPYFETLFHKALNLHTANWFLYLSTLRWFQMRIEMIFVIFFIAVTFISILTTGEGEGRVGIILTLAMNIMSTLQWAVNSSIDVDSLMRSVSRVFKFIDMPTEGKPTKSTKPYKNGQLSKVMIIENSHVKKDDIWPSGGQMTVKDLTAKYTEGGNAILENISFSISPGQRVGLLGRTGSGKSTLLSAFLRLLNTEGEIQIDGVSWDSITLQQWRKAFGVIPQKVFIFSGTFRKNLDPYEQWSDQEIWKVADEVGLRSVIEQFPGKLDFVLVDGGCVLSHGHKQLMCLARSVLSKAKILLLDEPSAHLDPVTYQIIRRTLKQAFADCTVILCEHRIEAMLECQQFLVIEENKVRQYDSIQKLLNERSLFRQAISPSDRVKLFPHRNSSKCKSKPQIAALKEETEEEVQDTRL

- EC50: ≤ 2 µM
SMILES: C[N+](C)(C)CCOC(=O)c1cccc(-c2nc(NC(=O)C3(c4ccc5c(c4)OC(F)(F)O5)CC3)cc3ccccc23)c1 [Compound 28, 2-(3-(3-(1-(2,2-Difluorobenzo[d][1,3]dioxol-5-yl)cyclopropanecarboxamido)isoquinolin-1-yl)benzoyloxy)-N,N,N-trimethylethanaminium chloride]
